# Data: article PMC6108528, “Enhanced uptake of potassium or glycine betaine or export of cyclic-di-AMP restores osmoresistance in a high cyclic-di-AMP Lactococcus lactis mutant” (PLoS Genetics, 2018)
# Molecular target: T1, full length BusR (Lactococcus cremoris, UniProt A2RK30)
# T1 construct: full length, His-6 tag fusion in pRSETA, codon optimised, E. coli BL21 whole cell lysate
# T1 sequence (A2RK30 1-206): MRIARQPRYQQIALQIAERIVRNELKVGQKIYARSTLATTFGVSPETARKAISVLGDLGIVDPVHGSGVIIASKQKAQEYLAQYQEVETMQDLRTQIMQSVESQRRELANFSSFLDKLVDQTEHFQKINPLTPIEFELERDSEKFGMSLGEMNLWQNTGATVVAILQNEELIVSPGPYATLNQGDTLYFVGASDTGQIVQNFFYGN
# Assay: DRaCALA with […]-c-di-AMP, E. coli whole cell lysate
# Assay type: biochemical
# Conditions: labelled compound; room temperature, 10 min
compound,measurement,value
Nc1ncnc2c1ncn2[C@@H]1O[C@@H]2COP(=O)(O)O[C@H]3[C@@H](O)[C@H](n4cnc5c(N)ncnc54)O[C@@H]3COP(=O)(O)O[C@H]2[C@H]1O [c-di-AMP],"DRaCALA with 32P-c-di-AMP, E. coli whole cell lysate",Both full length BusR and the BusR TrkA_C domain bound c-di-AMP
